According to patent US20100331185A1, “Herbicidal Compositions of Lithium Glyphosate and Adjuvants” (COGNIS IP […], priority 2007, published 2010):
Read-outs that look alike come from different tables or passages of the source.

Experiments:
[1] = Description: 35.2 g of glyphosate tech (96%, 0.208 mol) was mixed with 20 g water in a flask. 8.4 g of LiOH monohydrate was added to this mixture with good mixing.
[2] = acid form, in water at 25° C.; cited from earlier work

## O=C(O)CNCP(=O)([O-])O.[Li+] [Li glyphosate, lithium glyphosate]
[1]
  product pH (1%): 4.98
[1]; solvent: Agnique KE 3658
  Li glyphosate Solubility: <100 mg/mL
[1]; solvent: Agnique ME 610
  Li glyphosate Solubility: <50 mg/mL
[1]; solvent: Exxsol D-110
  Li glyphosate Solubility: <50 mg/mL
[1]; solvent: N-Methyl pyrrolidone
  Li glyphosate Solubility: <150 mg/mL
[1]; solvent: Water
  Li glyphosate Solubility: <200 mg/mL

## O=C(O)CNCP(=O)(O)O [glyphosate]
[2]
  solubility in water: 0.16 % by weight
